According to US9242937B2, “Pharmaceutically active disubstituted pyridine derivatives” (Bayer Intellectual Property GmbH, priority 2011, dated 2016):

Legend:
CDK9 = biological target: T1, CDK9 (Homo sapiens, UniProt P50750); test: Lance Ultra KinaSelect Assay, CDK9; assay type: biochemical; conditions: ULight MBP substrate; cyclin partner not stated in Table 5; read-out: CDK9 LANCE assay (activity range), IC50
T1 construct: purchased Invitrogen
Protocol: This protocol describes how the Lance Ultra KinaSelect Assay was performed to determine half maximal inhibitory concentration (IC50) of compounds of general formula (I) and CDK/Cyclin complexes. The principle behind this enzymatic assay is based upon the phosphorylation of the ULight-Peptide Substrat. It is detected by using a specific EU-labeled anti-phospho peptide antibody. The binding of the Eu-labeled anti-phospho peptide antibody to the phosphorylated ULight labeled peptide gives rise to a FRET-signal. Binding of an inhibitor to the kinase prevents phosphorylation of the ULight-MBP Substrat, resulting in a loss of FRET.
The compounds of general formula (I) summarized in Table 5 were diluted from a 10 mM DMSO stock solution 1:10 in a total volume of 15 μL DMSO. This compound predilution was then serial diluted 1:3 over 8 steps in DMSO and briefly spun down. Each compound solution was now diluted 1:20 in Enzymatic Buffer (HEPES: 50 mM, pH: 7.5; MgCl2: 10 mM; EGTA: 1 mM; DTT: 2 mM; Tween-20: 0.01%), mixed thoroughly and spun down. For every sample, 2 μL of the diluted compound were mixed with 6 μL CDK/Cyclin/Substrat solution and 2 μL ATP solution in a well of a small volume 384 well plate (Corning Incorporated, Corning, N.Y., USA; order no. 3673). The CDK/Cyclin was diluted to the appropriate concentration (see Table 3) and the ATP concentration was adjusted to its […] for the CDK/Cyclin, which was 3 μM for CDK2/Cyclin A, 20 μM for CDK1/Cyclin B1, 25 μM for CDK7/Cyclin H and CDK9/Cyclin T1, 55 μM for CDK6/Cyclin D3, 90 μM for CDK4/Cyclin D1 and 125 μM for CDK9/Cyclin K. For negative controls, in each well 2 μL of DMSO solution (1% final DMSO assay concentration) was mixed with 6 μL substrate solution (50 nM ULight MBP final assay concentration) and 2 μL ATP solution (appropriate final concentration see Table 3). For positive controls, in each well 2 μL of DMSO solution (1% final DMSO assay concentration) was mixed with 6 μL CDK/Cyclin/Substrat (appropriate final concentration see Table 3) and 2 μL Tracer ATP solution (appropriate final concentration see Table 3). Positive and negative controls were calculated from at least 8 different sample wells. The 384 well plates were mixed in a Teleshaker plate mixer (Beckman Coulter, Brea, Calif., USA) at 2000 rpm for 40 sec, and incubated for 1 h at room temperature. Before reading, 10 μL the detection buffer (Lance Detection Buffer 1×; EDTA: […]; Eu-Anti-P-MBP: see Table 3) was added. The FRET signal was measured at 340 nm excitation, 665 nm and 615 nm emission (for the kinase tracer and LanthaScreen Eu-AB, respectively) with an Envision spectrophotometer (Perkin Elmer, Waltham, Mass., USA) with 50 μs delay and 300 μs integration time. IC50 values were determined from the sigmoidal dose response curves with the software Quattro Workflow (Quattro GmbH, Munich, Germany).

Hela cells = test: Cell viability assay, Hela cells; assay type: cell-based; conditions: Homo sapiens, 72 h, Cell Titer Glo, read-out: Cell Viability - Hela cells (activity range), IC50
Protocol: Hela- or MDAMB468-Cells were maintained in RPMI 1640 or McCoy's 5A cell culture medium+glutamine (PAN Biotech GmbH, Aidenbach, Germany; order no. P04-22100; P04-05500) supplemented with 10% fetal calf serum “Gold” (PAA Laboratories GmbH, Pasching, Austria; order no. A15-151) and grown at 37° C., 5% CO2. For the cell viability assay, cells were seeded with a density of 400 (Hela cells, DSMZ Braunschweig order no. ACC57) or 800 (MDAMB468 cells, ATCC order no. HTB-132) per well in 25 μL in 384-well plates (Greiner Bio-One, Frickenhausen, Germany; order no. 781080). After overnight incubation at 37° C./5% CO2, 25 nL or 75 nL compound were added to each sample well by using BIOMEK FXP Laboratory Automation Workstation (Beckman Coulter, USA). Wells with cells and 0.1% or 0.3% DMSO in culture medium were used as positive controls, wells with cells and 10 μM staurosporine in culture medium were used as negative controls. The cells were incubated with the compounds for 72 h at 37° C./5% CO2. For measurement of cell viability 25 μL Cell Titer Glo reagent (Promega, Madison, USA; order no. G7573), 1:2 diluted with cell culture medium, was added to each well. The 384 well-plates were placed for 2 min on a orbital microplate shaker and incubated for further 10 min at room temperature to stabilize the luminescence signal. Luminescence was measured by Envision Plate Reader (Perkin Elmer, USA). IC50 values were calculated with the software Excel Fit (IDBS, Guildford, UK) from 3-fold dilution series comprising at least 8 concentrations in duplicates.

[1] = tested on: NF-kappaB reporter gene activation in HEK293 cells; test: NF-kappaB reporter assay; assay type: cell-based; conditions: Homo sapiens, pNFkBluc reporter, 20 ng/ml TNF alpha, 5 h, read-out: NF-kappaB activation (activity range), IC50
Protocol: Cells were maintained in RPMI cell culture medium+glutamine (PAN Biotech GmbH, Aidenbach, Germany) supplemented with 10% fetal calf serum (PAA Laboratories GmbH, Pasching, Austria) and grown at 37° C., 5% CO2. HEK293 cells grown to 50% confluence were transfected with the Amaxa® Cell Line Nucleofector® Kit V (Lonza, Basel, Switzerland, catalog # VCA-1003). Transfections were performed according to manufacturer's optimized protocol for transfection of HEK293 cells. In brief, 2×10^5 cells were transfected with 5 μg highly purified plasmid DNA. Cells were transfected with a NF-kappa B reporter plasmid (pNFkBluc), pTALluc for control, or pMAXGFP for transfection control. After transfection, cells were taken up in 500 μL RPMI1640 cell culture medium, incubated for 1 h at 37° C., and 4.5 ml DMEM without phenol red were added per transfection. Transfected cells were seeded in 96 well plates (Greiner Bio-One, Frickenhausen, Germany, catalog #655098) with 100 μL cell suspension per well and incubated for 48 h. To each well, 100 μL DMEM with 2× concentrated compound diluted from 10 mM DMSO stocks, or 100 μL DMEM with 0.4% DMSO for control wells, was added. The compounds of general formula (I) summarized in Table 6 were used in this assay. Cells were stimulated with 20 ng/ml TNF alpha, and plates were incubated for 5 h at 37° C./5% CO2. Cell culture supernatants were removed to leave 100 μl medium per well, followed by addition of 100 μl Bright Glo luciferase assay reagent (Promega, Madison, Wis., USA, catalog # E2620), and shaking for 5 minutes in the dark. Luminescence was measured with a Victor Photospectrometer (Perkin Elmer, Waltham, Mass., USA). IC50 values were calculated with the software Excel Fit (IDBS, Guildford, UK) from 2-fold dilution series comprising at least 10 concentrations in duplicates.

T1 sequence (P50750 whole entry): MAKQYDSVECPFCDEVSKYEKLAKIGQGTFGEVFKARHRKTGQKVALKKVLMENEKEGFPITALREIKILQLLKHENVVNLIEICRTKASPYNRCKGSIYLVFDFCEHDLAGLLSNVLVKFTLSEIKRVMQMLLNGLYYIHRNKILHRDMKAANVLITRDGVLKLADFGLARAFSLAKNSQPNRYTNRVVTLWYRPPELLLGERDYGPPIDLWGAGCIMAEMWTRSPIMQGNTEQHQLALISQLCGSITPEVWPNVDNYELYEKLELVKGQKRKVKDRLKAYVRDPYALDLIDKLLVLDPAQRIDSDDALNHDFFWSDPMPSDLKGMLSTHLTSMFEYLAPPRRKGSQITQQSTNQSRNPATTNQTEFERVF

Structure (SMILES): COc1cc(F)ccc1-c1ccnc(Nc2cccc(CS(=O)(=O)N(C)C)c2)c1 [Compound G3, 1-[3-((4-(4-Fluoro-2-methoxyphenyl)pyridin-2-yl)amino)phenyl]-N,N-dimethylmethanesulfonamide]
- IC50 (CDK9): < 100 nM
- IC50 (Hela cells): > 10000 nM

Structure (SMILES): COc1ccccc1-c1ccnc(Nc2ccc(S(N)(=O)=O)cc2)c1 [Compound E1, 4-[(4-(2-Methoxyphenyl)pyridin-2-yl)amino]benzenesulfonamide]
- IC50 (CDK9): 100 to 1000 nM
- IC50 (Hela cells): > 10000 nM
- IC50 [1]: 1000 to 10000 nM

Structure (SMILES): COc1cc(F)ccc1-c1ccnc(Nc2cccc(NS(C)(=O)=O)c2)c1 [Compound J1, N-[3-((4-(4-Fluoro-2-methoxyphenyl)pyridin-2-yl)amino)phenyl]-methanesulfonamide]
- IC50 (CDK9): < 100 nM
- IC50 (Hela cells): 1000 to 10000 nM

Structure (SMILES): COc1ccccc1-c1ccnc(Nc2cccc(S(C)(=O)=O)c2)c1 [Compound F1, 4-(2-Methoxyphenyl)-N-(3-(methylsulfonyl)phenyl)pyridin-2-amine]
- IC50 (CDK9): < 100 nM
- IC50 (Hela cells): 1000 to 10000 nM
- IC50 [1]: 1000 to 10000 nM

Structure (SMILES): COc1cc(F)ccc1-c1ccnc(Nc2cccc(NC(C)=O)c2)c1 [Compound J2, N-[3-((4-(4-Fluoro-2-methoxyphenyl)pyridin-2-yl)amino)phenyl]-acetamide]
- IC50 (CDK9): < 100 nM
- IC50 (Hela cells): > 10000 nM

Structure (SMILES): CCCNS(=O)(=O)Cc1cccc(Nc2cc(-c3ccc(F)cc3OC)ccn2)c1 [Compound K1, 1-[3-((4-(4-Fluoro-2-methoxyphenyl)pyridin-2-yl)amino)phenyl]-N-propylmethanesulfonamide]
- IC50 (CDK9): 100 to 1000 nM
- IC50 (Hela cells): > 10000 nM

Structure (SMILES): COc1ccccc1-c1ccnc(Nc2cccc([N+](=O)[O-])c2)c1 [Compound C1, 4-(2-Methoxyphenyl)-N-(3-nitrophenyl)pyridin-2-amine]
- IC50 (CDK9): 1000 to 10000 nM
- IC50 [1]: 1000 to 10000 nM

Structure (SMILES): COc1ccccc1-c1ccnc(Nc2ccccc2)c1 [Compound B1, 4-(2-Methoxyphenyl)-N-phenylpyridin-2-amine]
- IC50 (CDK9): 1000 to 10000 nM
- IC50 [1]: > 10000 nM

Structure (SMILES): COc1cc(F)ccc1-c1ccnc(Nc2cccc(CS(N)(=O)=O)c2)c1 [Compound G1, [3-((4-(4-Fluoro-2-methoxyphenyl)pyridin-2-yl)amino)phenyl]-methanesulfonamide]
- IC50 (CDK9): < 100 nM
- IC50 (Hela cells): 1000 to 10000 nM
- IC50 [1]: 100 to 1000 nM

Structure (SMILES): COc1ccccc1-c1ccnc(Nc2cccc(S(N)(=O)=O)c2)c1 [Compound D1, 3-[(4-(2-Methoxyphenyl)pyridin-2-yl)amino]benzenesulfonamide]
- IC50 (CDK9): < 100 nM
- IC50 (Hela cells): 100 to 1000 nM
- IC50 [1]: 100 to 1000 nM
